Numbered stars: 1 amine (or outer) side, 2 acyl side, 3 side chain; on linkers, the order of the positions; unused ones are H or OH. Square brackets hold non-standard residues; d marks the D form. Peptide text beside a SMILES is read from it. * marks the point of attachment. ξ: configuration not given here. Dansyl = CN(C)c1cccc2c(S(=O)(=O)*)cccc12; Suc = O=C(CCC(=O)[*:2])[*:1]; MeOSuc = COC(=O)CCC(=O)*; Cbz = O=C(OCc1ccccc1)*; Boc = CC(C)(C)OC(=O)*; ξL = CC(C)CC(N)C(=O)O; ξV = CC(C)C(N)C(=O)O; CH2Cl = ClC*

The first data set relates to human HeLa-O cells.
Assay: not given
Conditions: not given
As for `CC(C)C[C@H](NC(=O)[C@H](CC(C)C)NC(=O)CNC(=O)[C@H](Cc1ccccc1)NC(=O)OCc1ccccc1)C(=O)CCl` [Example 12, N-carbobenzoxy-L-phenylalanyl-L-glycyl-L-leucyl-L-leucine chloromethyl ketone] (Cbz-FGLL-CH2Cl), the “Cytotoxicity first detected at a concentration” value is “about 15 μg/mL”.

In a further data set the target is chymotrypsin (Bos taurus, UniProt P00766).
Assay: not given
The conditions noted are these: inhibitor concentration of 600 μg/mL; cited from earlier work.
Regarding `CC(=O)N[C@@H](CC(C)C)C(=O)N[C@@H](CC(C)C)C(=O)N[C@@H](Cc1ccccc1)C(C)=O` [Ac-Leu-Leu-PheCH3], the Inhibition of chymotrypsin result was “no inhibition was observed”.

Another data set relates to Human rhinovirus type 1A. Put plainly: Plaque inhibition assay. The conditions noted are these: HeLa cells, concentration giving 90% plaque reduction. The class given is cell-based.
`CC(C)C[C@H](NC(=O)[C@H](CC(C)C)NC(=O)CNC(=O)[C@H](Cc1ccccc1)NC(=O)OCc1ccccc1)C(=O)CCl` [Example 12, N-carbobenzoxy-L-phenylalanyl-L-glycyl-L-leucyl-L-leucine chloromethyl ketone] (Cbz-FGLL-CH2Cl): the “Antiviral activity, as scored by 90% plaque reduction” value was 1 µg/mL.

The next data set relates to human poliomyelitisvirus type 2.
Assay: not given
Conditions: not given
The format is cell-based.
As to `CC(C)C[C@H](NC(=O)[C@H](C)NC(=O)CNC(=O)[C@H](Cc1ccccc1)NC(=O)OCc1ccccc1)C(=O)CCl` [Example 1, Z--Phe--Gly--Ala--LeuCH2 Cl] (Cbz-FGAL-CH2Cl), the “Activity (protease-inhibiting activity)” value is “+++ (key: -: no activity; +/-: low activity; +: active at 100 μg/mL; ++: active at 50 μg/mL; +++: active at 10 μg/mL; ++++: active at <5 μg/mL)”.

Regarding `CC(=O)N[C@@H](Cc1ccccc1)C(=O)NCC(=O)N[C@@H](C)C(=O)NC(CC(C)C)C(=O)CCl` (stereo partly drawn) [Example 2, acetyl-L-phenylalanyl-L-glycyl-L-alanyl-L-leucyl chloromethyl ketone] (Ac-FGA[ξL]-CH2Cl), the “Activity (protease-inhibiting activity)” value is “+++ (key: -: no activity; +/-: low activity; +: active at 100 μg/mL; ++: active at 50 μg/mL; +++: active at 10 μg/mL; ++++: active at <5 μg/mL)”.

Regarding `CC(C)CC(NC(=O)[C@H](C)NC(=O)CNC(=O)[C@H](Cc1ccccc1)NC(=O)CCC(=O)O)C(=O)CCl` (stereo partly drawn) [Example 3, Suc--Phe--Gly--Ala--LeuCH2 Cl] (Suc-FGA[ξL]-CH2Cl), the “Activity (protease-inhibiting activity)” value is on record as “+++ (key: -: no activity; +/-: low activity; +: active at 100 μg/mL; ++: active at 50 μg/mL; +++: active at 10 μg/mL; ++++: active at <5 μg/mL)”.

For `COC(=O)CCC(=O)N[C@@H](Cc1ccccc1)C(=O)NCC(=O)N[C@@H](C)C(=O)N[C@@H](CC(C)C)C(=O)CCl` [Example 4, methoxy-succinyl-L-phenylalanyl-L-glycyl-L-alanyl-L-leucyl chloromethyl ketone] (MeOSuc-FGAL-CH2Cl), the “Activity (protease-inhibiting activity)” value was “+++ (key: -: no activity; +/-: low activity; +: active at 100 μg/mL; ++: active at 50 μg/mL; +++: active at 10 μg/mL; ++++: active at <5 μg/mL)”.

For `CC(C)C[C@H](NC(=O)[C@H](C)NC(=O)CNC(=O)[C@H](Cc1ccccc1)NS(=O)(=O)c1cccc2c(N(C)C)cccc12)C(=O)CCl` [Example 5, DNS--Phe--Gly--Ala--LeuCH2 Cl] (Dansyl-FGAL-CH2Cl), the “Activity (protease-inhibiting activity)” value is “+++ (key: -: no activity; +/-: low activity; +: active at 100 μg/mL; ++: active at 50 μg/mL; +++: active at 10 μg/mL; ++++: active at <5 μg/mL)”.

On to `CC(C)C[C@H](NC(=O)[C@H](C)NC(=O)CNC(=O)[C@H](Cc1ccccc1)Nc1ccc([N+](=O)[O-])cc1[N+](=O)[O-])C(=O)CCl` [Example 6, DNP--Phe--Gly--Ala--LeuCH2 Cl], for which the “Activity (protease-inhibiting activity)” value is “+++ (key: -: no activity; +/-: low activity; +: active at 100 μg/mL; ++: active at 50 μg/mL; +++: active at 10 μg/mL; ++++: active at <5 μg/mL)”.

`CC(C)C[C@H](NC(=O)[C@H](C)NC(=O)CNC(=O)OC(C)(C)C)C(=O)CCl` [Example 7, Boc--Gly--Ala--LeuCH2 Cl] (Boc-Gly-Ala-Leu-CH2Cl): the “Activity (protease-inhibiting activity)” value is reported as “++ (key: -: no activity; +/-: low activity; +: active at 100 μg/mL; ++: active at 50 μg/mL; +++: active at 10 μg/mL; ++++: active at <5 μg/mL)”.

As for `CC(C)C[C@H](NC(=O)[C@H](C)NC(=O)CNC(=O)[C@H](CC(C)C)NC(=O)OCc1ccccc1)C(=O)CCl` [Example 8, Z--Leu--Gly--Ala--LeuCH2 Cl] (Cbz-LGAL-CH2Cl), the “Activity (protease-inhibiting activity)” value is recorded as “+++ (key: -: no activity; +/-: low activity; +: active at 100 μg/mL; ++: active at 50 μg/mL; +++: active at 10 μg/mL; ++++: active at <5 μg/mL)”.

In the case of `CC(C)C[C@H](NC(=O)CNC(=O)CNC(=O)[C@H](Cc1ccccc1)NC(=O)OCc1ccccc1)C(=O)CCl` [Example 9, Z--Phe--Gly--Gly--LeuCH2 Cl] (Cbz-FGGL-CH2Cl), the “Activity (protease-inhibiting activity)” value was “+++ (key: -: no activity; +/-: low activity; +: active at 100 μg/mL; ++: active at 50 μg/mL; +++: active at 10 μg/mL; ++++: active at <5 μg/mL)”.

Consider `CC(C)CC(NC(=O)C(C)NC(=O)CNC(=O)C(Cc1ccccc1)NC(=O)OCc1ccccc1)C(=O)CBr` (stereo not drawn) [Example 10, Z--Phe--Gly--Ala--LeuCH2 Br], for which the “Activity (protease-inhibiting activity)” value is recorded as “+++ (key: -: no activity; +/-: low activity; +: active at 100 μg/mL; ++: active at 50 μg/mL; +++: active at 10 μg/mL; ++++: active at <5 μg/mL)”.

On to `CC(C)C(NC(=O)[C@H](C)NC(=O)CNC(=O)[C@H](Cc1ccccc1)NC(=O)OCc1ccccc1)C(=O)CCl` (stereo partly drawn) [Example 11, Z--Phe--Gly--Ala--ValCH2 Cl] (Cbz-FGA[ξV]-CH2Cl), for which the “Activity (protease-inhibiting activity)” value was “++ (key: -: no activity; +/-: low activity; +: active at 100 μg/mL; ++: active at 50 μg/mL; +++: active at 10 μg/mL; ++++: active at <5 μg/mL)”.

With `CC(C)C[C@H](NC(=O)[C@H](CC(C)C)NC(=O)CNC(=O)[C@H](Cc1ccccc1)NC(=O)OCc1ccccc1)C(=O)CCl` [Example 12, N-carbobenzoxy-L-phenylalanyl-L-glycyl-L-leucyl-L-leucine chloromethyl ketone] (Cbz-FGLL-CH2Cl), the “Activity (protease-inhibiting activity)” value is recorded as “++++ (key: -: no activity; +/-: low activity; +: active at 100 μg/mL; ++: active at 50 μg/mL; +++: active at 10 μg/mL; ++++: active at <5 μg/mL)”.

Consider `CC(C)CC(NC(=O)[C@H](C)NC(=O)[C@H](CC(C)C)NC(=O)[C@H](Cc1ccccc1)NC(=O)OCc1ccccc1)C(=O)CCl` (stereo partly drawn) [Example 13, Z--Phe--Leu--Ala--LeuCH2 Cl] (Cbz-FLA[ξL]-CH2Cl), for which the “Activity (protease-inhibiting activity)” value was “++ (key: -: no activity; +/-: low activity; +: active at 100 μg/mL; ++: active at 50 μg/mL; +++: active at 10 μg/mL; ++++: active at <5 μg/mL)”.

Turning to `CC(C)C[C@H](NC(=O)[C@H](Cc1ccccc1)NC(=O)CNC(=O)[C@H](Cc1ccccc1)NC(=O)OCc1ccccc1)C(=O)CCl` [Example 14, Z--Phe--Gly--Phe--LeuCH2 Cl] (Cbz-FGFL-CH2Cl), the “Activity (protease-inhibiting activity)” value is “++ (key: -: no activity; +/-: low activity; +: active at 100 μg/mL; ++: active at 50 μg/mL; +++: active at 10 μg/mL; ++++: active at <5 μg/mL)”.

As for `CC(C)C[C@H](NC(=O)[C@H](CO)NC(=O)CNC(=O)[C@H](Cc1ccccc1)NC(=O)OCc1ccccc1)C(=O)CCl` [Example 15, Z--Phe--Gly--Ser--LeuCH2 Cl] (Cbz-FGSL-CH2Cl), the “Activity (protease-inhibiting activity)” value was “++ (key: -: no activity; +/-: low activity; +: active at 100 μg/mL; ++: active at 50 μg/mL; +++: active at 10 μg/mL; ++++: active at <5 μg/mL)”.

For the compound `CC(C)C[C@H](NC(=O)[C@@H]1CCCN1C(=O)CNC(=O)[C@H](Cc1ccccc1)NC(=O)OCc1ccccc1)C(=O)CCl` [Example 16, Z--Phe--Gly--Pro--LeuCH2 Cl] (Cbz-FGPL-CH2Cl), the “Activity (protease-inhibiting activity)” value is recorded as “++ (key: -: no activity; +/-: low activity; +: active at 100 μg/mL; ++: active at 50 μg/mL; +++: active at 10 μg/mL; ++++: active at <5 μg/mL)”.

Take `CC[C@H](C)[C@H](NC(=O)[C@H](C)NC(=O)CCC(=O)OC)C(=O)N[C@@H](Cc1ccccc1)C(=O)N[C@@H](CC(C)C)C(=O)CCl` [Example 17, MeOSuc--Ala--Ile--Phe--LeuCH2 Cl] (MeOSuc-AIFL-CH2Cl): the “Activity (protease-inhibiting activity)” value is on record as “+++ (key: -: no activity; +/-: low activity; +: active at 100 μg/mL; ++: active at 50 μg/mL; +++: active at 10 μg/mL; ++++: active at <5 μg/mL)”.

For `COC(=O)CCC(=O)N[C@@H](Cc1ccccc1)C(=O)NCC(=O)N[C@@H](CC(C)C)C(=O)N[C@@H](CCC(=O)OC)C(=O)CCl` [Example 18, MeOSuc--Phe--Gly--Leu--Glu(OCH3)CH2 Cl] (MeOSuc-FGLE(OMe)-CH2Cl), the “Activity (protease-inhibiting activity)” value was “++++ (key: -: no activity; +/-: low activity; +: active at 100 μg/mL; ++: active at 50 μg/mL; +++: active at 10 μg/mL; ++++: active at <5 μg/mL)”.

In the case of `CCC(C)C(NC(=O)C(C)NC(=O)CCC(=O)OC)C(=O)NC(Cc1ccccc1)C(=O)NC(CCC(=O)OC)C(=O)CCl` (stereo not drawn) [Example 19, MeOSuc--Ala--Ile--Phe--Glu(OCH3)CH2 Cl] (MeOSuc-AIFE(OMe)-CH2Cl; configuration not given here), the “Activity (protease-inhibiting activity)” value is “+++ (key: -: no activity; +/-: low activity; +: active at 100 μg/mL; ++: active at 50 μg/mL; +++: active at 10 μg/mL; ++++: active at <5 μg/mL)”.

`C[C@H](NC(=O)CNC(=O)[C@H](Cc1ccccc1)NC(=O)OCc1ccccc1)C(=O)N[C@@H](Cc1ccc(O)cc1)C(=O)CCl` [Example 20, Z--Phe--Gly--Ala--TyrCH2 Cl] (Cbz-FGAY-CH2Cl): the “Activity (protease-inhibiting activity)” value is listed as “++ (key: -: no activity; +/-: low activity; +: active at 100 μg/mL; ++: active at 50 μg/mL; +++: active at 10 μg/mL; ++++: active at <5 μg/mL)”.

The target in the next data set is T1, subtilisin BPN' (Bacillus amyloliquefaciens, UniProt P00782).
T1 sequence (P00782 108-382): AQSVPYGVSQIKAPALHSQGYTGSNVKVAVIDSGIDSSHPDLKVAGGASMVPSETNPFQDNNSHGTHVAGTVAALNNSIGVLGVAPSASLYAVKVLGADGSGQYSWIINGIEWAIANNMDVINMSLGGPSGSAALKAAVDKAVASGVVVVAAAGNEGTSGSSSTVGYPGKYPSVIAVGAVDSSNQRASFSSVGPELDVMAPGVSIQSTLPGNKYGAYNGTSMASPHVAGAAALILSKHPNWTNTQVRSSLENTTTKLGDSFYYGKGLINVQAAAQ
Assay: not given
The conditions noted are these: among a series of peptide chloromethyl ketones; cited from earlier work.
In the case of `CC(=O)N[C@@H](Cc1ccccc1)C(=O)NCC(=O)N[C@@H](C)C(=O)NC(CC(C)C)C(=O)CCl` (stereo partly drawn) [Example 2, acetyl-L-phenylalanyl-L-glycyl-L-alanyl-L-leucyl chloromethyl ketone] (Ac-FGA[ξL]-CH2Cl), the “Inhibition of subtilisin BPN' (relative rate)” value is recorded as “fastest inhibitor”.
